Measurements taken from patent publication US6903100B2, “USE OF REGULARLY SCHEDULED HIGH DOSE INTRAVENOUS METHOTREXATE THERAPY, WITH INTERIM ADMINISTRATION OF IMMUNOMODULATORY AGENTS, TO TREAT MULTIPLE SCLEROSIS AND OTHER DISEASES OF THE CENTRAL NERVOUS SYSTEM” (MidAmerica Neuroscience Research Foundation, priority 2001, dated 2005).
Where “and” joins values, the source holds several entries; their conditions need not be identical. Equal values may be shown once.

Experiments:
[1] = system: MS; CNS lymphomas; conditions: cited from earlier work
[2] = system: relapsing progressive MS; test: MSFC clinical outcome (9-HPT, 25-ft walk, PASAT) in patients treated with bimonthly high dose IV methotrexate; assay type: in vivo; design: 9-HPT change / 25-ft walk change: unit not given here
Protocol: Ten patients of relapsing progressive MS were treated with bimonthly high dose intravenous methotrexate with leucovorin rescue, combined with interim treatment with low dose immunomodulatory agents.
(§1) Methotrexate treatments were given every 2 months for up to 6 treatments. Methotrexate was administered by IV at a dosage of 1 g/m^2 for the first three treatments. […] The patients were then switched to doses of 2 g/m^2 of methotrexate for three subsequent treatments. Methotrexate was given after hydration and alkalization, with urine pH 7.0 or greater. The infusion was followed by continued hydration for several hours.
(§2) Each methotrexate treatment was followed by intravenous leucovorin rescue with 50 mg leucovorin eight hours after the start of the methotrexate infusion. Oral leucovorin (25 mg) was administered every 6 hours for a total of 12 doses after intravenous leucovorin rescue, and the serum methotrexate level measured. If necessary oral leucovorin was continued until the serum level reached 0.05 μM.
At the time of study entry, all patients were being treated, with interferon (AVONEX® or BETA-SERON®), glatiramer acetate (COPAXONE®), or oral methotrexate. These medications were continued between treatments.
The clinical outcome was determined by MSFC scores at baseline and at two months follow up visits after each treatment. The MSFC is a clinical outcome measure, which measures three clinical functions involving hand dexterity, walking, and cognition. Two tailed paired t-test was used to compare the results of MSFC.

[3] = Methotrexate in cerebrospinal fluid (CSF) after infusion; assay type: in vivo; conditions: five CSF samples, several patients and time points after infusion of 2 g/m^2
Protocol: Five samples of cerebrospinal fluid (CSF) were analyzed for methotrexate, representing several patients and several time points after methotrexate infusion of 2 g/m^2.

[4] = Safety of high dose IV methotrexate with leucovorin rescue in MS patients; assay type: in vivo
Protocol: as §1, §2

[5] = cited from earlier work; for crossing of the blood brain barrier (BBB) into the CNS: in vivo
[6] = after one year of treatment, ten patients
[7] = all patients together, two tailed paired t-test
[8] = all patients together, two tailed paired t-test, p<0.05
[9] = individual patient, change from baseline after one year, IV 1 g/m^2 x3 then 2 g/m^2 x3, every 2 months, leucovorin rescue, interim agent

In the case of `CN(Cc1cnc2nc(N)nc(N)c2n1)c1ccc(C(=O)N[C@@H](CCC(=O)O)C(=O)O)cc1` [Methotrexate, methotrexate], the “toxicity of high dose in CNS lymphoma trials” value ([1]; in vivo, iv) is given as “low toxicity”, the “toxicity of high dose sporadically administered” value ([1]; in vivo, iv) is given as “no significant toxicity” and the “toxicity of low-dose oral treatment in progressive MS” value ([1]; in vivo, po) is given as “minimal toxicity”. The “upper extremity strength in MS patients” value ([1]; oral treatments) was “mild improvement”, the “MSFC scores of some of the patients” value ([2]; after 3 treatments at 1 g/m^2) was “improved significantly” and the “maximum increase of overall MSFC” value [2, 6] was “+1.28”. For the same compound, the “minimum increase of overall MSFC” value [2, 6] was “+0.08”, the “clinical assessment with MSFC scores” value ([2]; after treatment) was “significant improvement” and the “improvement in the 25-ft walk test” value [2, 7] was “not significant”. For the same compound, the “improvement in the PASAT test” value [2, 7] was “not significant”, the “mean nine-hole peg score after treatment” value [2, 8] was “significant improvement” and the “mean overall MSFC score after treatment” value [2, 8] was “significant improvement”. For the same compound, the 9-HPT change [2, 9] was “+0.45 and +0.86 and −0.31 and +0.20 and +0.83 and +0.30 and −0.10 and +0.80 and +1.07 and +0.70”, the 25-ft walk change [2, 9] was “+0.04 and 0.00 and −0.01 (2×) and +0.08 and +0.14 and −0.04 and −0.07 and −0.22 and +0.53” and the MSFC change [2, 9] was “+0.38 and +0.31 and +0.25 and +0.18 and +0.13 and +0.09 and +0.08 (2×) and +1.28 and +0.56”. The PASAT change [2, 9] was “+0.66 and +0.08 and +1.08 and +0.25 and −0.58 and 0.00 and +0.41 and −0.33 and +2.24 and +0.99”, the “PASAT (cognitive function): patients improved” value ([2]; of 10) was 6 patients and the “PASAT (cognitive function): patients turned worse” value ([2]; of 10) was 2. The “PASAT (cognitive function): patients unchanged” value ([2]; of 10) was 2, the “nine-hole peg test (arm function): patients improved” value ([2]; of 10) was 8 patients and the “nine-hole peg test (arm function): patients unchanged” value ([2]; of 10) was 1. For the same compound, the “nine-hole peg test (arm function): patients with minor worsening” value ([2]; of 10) was 1 patient, the “timed 25-ft walk (leg function): patients unchanged” value ([2]; of 10) was 7 and the “timed 25-ft walk (leg function): patients with improvement” value ([2]; of 10) was 2 patients. For the same compound, the “timed 25-ft walk (leg function): patients with slight worsening” value ([2]; of 10) was 1, the “patients improved on MSFC” value ([2]; of 10, after one year, change >+0.1) was “seven” and the “patients unchanged on MSFC” value ([2]; of 10, after one year, change less than 0.1) was “three”. For the same compound, the “deterioration of symptoms of progressive MS” value ([2]; periodic high dose with leucovorin rescue and interim treatments) was “halted the deterioration of the symptoms in every patient treated”, the “crossing of the BBB (methotrexate in CSF)” value [3] was “cross the BBB in cytotoxic amounts” and the tolerability ([4]; IV 1 g/m^2, first three treatments) was “well tolerated”. The renal toxicity ([4]; after one treatment, 2-week follow up creatinine clearance within acceptable limits) was “one patient experienced Grade I renal toxicity”, the alopecia ([4]; ten patients) was “No alopecia was noted” and the hematological toxicity ([4]; ten patients, up to 6 treatments) was “No hematological toxicity was observed”. For the same compound, the nausea ([4]; ten patients, easily treated with Zofran) was “Five patients experienced some nausea” and the “serum level relative to crossing the BBB” value ([5]; administered orally) was “not sufficient to cross the BBB in cytotoxic amounts”.

In the case of `O=P1(N(CCCl)CCCl)NCCCO1` (centres unmarked) [cyclophosphamide], the “efficacy against the progression of MS” value ([1]; in vivo) is listed as “some efficacy” and the “crossing of the blood brain barrier (BBB) into the CNS” value (“crossing of the blood brain barrier” for short) [5] is listed as “do not cross the blood brain barrier”.

For `Nc1nc2c(c(=O)[nH]1)N(C=O)C(CNc1ccc(C(=O)N[C@@H](CCC(=O)O)C(=O)O)cc1)CN2` (some centres unmarked) [leucovorin], the “crossing of the blood brain barrier” value [5] is given as “does not penetrate the BBB”.

For `O=C1c2c(O)ccc(O)c2C(=O)c2c(NCCNCCO)ccc(NCCNCCO)c21` [mitoxantrone], the “efficacy against the progression of MS” value ([1]; in vivo) is given as “some efficacy”, the toxicity limiting use ([1]; in vivo) is given as “limited lifetime use due to toxicity” and the “crossing of the blood brain barrier” value [5] is given as “do not cross the blood brain barrier”.
